Test results published in US6524603B1, “Process and composition for the antiparasitic treatment of the surroundings of animals” (priority 1996, dated 2003).

Tested on: darkling beetles (Alphitobius diaperinus)
Assay: Poultry house litter treatment, darkling beetle population monitored with 9 traps
Assay type: in vivo
Settings: water-dispersible granules 80% compound (A), 150 g/ha; during the 10th week (end of a rearing cycle)
Method: The treatment took place on the clean litter before the poultry was installed therein. The clean litter was essentially composed of straw.
On the day after the treatment, a group of chicks aged 1 to 2 days was installed in the rearing house at the rate of approximately 7 animals per m^2.
The change in the population of darkling beetles (Alphitobius diaperinus) in the litter was regularly monitored using 9 homogeneously distributed traps. Measurements were carried out each week from the second week after the treatment until rearing was halted.
The total population of darkling beetles in the 9 traps of the treated poultry house varied between 11 and 96 until the 9th week after treatment whereas, in a similar but untreated poultry house, the population of darkling beetles (larvae and adults) oscillated between 1000 and 3000 at each counting point.

N#Cc1nn(-c2c(Cl)cc(C(F)(F)F)cc2Cl)c(N)c1[S+]([O-])C(F)(F)F (stereo not shown) [compound (A), 1-[2,6-Cl2-4-CF3phenyl]-3-CN-4-[SO—CF3]-5-NH2pyrazole]
control of darkling beetles: 86%
